{"source": "paper PMC8229129", "about": "“Local Colonic Administration of a Serine Protease Inhibitor Improves Post-Inflammatory Visceral Hypersensitivity in Rats” (Pharmaceutics, 2021)", "key": {"[1]": {"test_system": "trypsin-like, chymotrypsin-like, cathepsin G, elastase-like, and kallikrein activities in colon tissue", "assay": "Proteolytic activities in colonic tissue of control rats after intracolonic administration", "assay_type": "in vivo, Sprague–Dawley rats", "conditions": "5 mg/kg intracolonic", "procedure": "The serine protease inhibitor UAMC-00050 (0.1–1.0–2.5–5.0 mg/kg, dissolved in a volume of 200 µL) or its vehicle (5% DMSO in H2O) was delivered colonically using a flexible catheter (18 G, length 4.5 cm) under short-lasting isoflurane anesthesia (5.0% induction, 1.5% maintenance). To prevent expulsion of the enema, animals were held in a Trendelenburg position for 90 s. Doses for intracolonic administration were based on the doses known to be effective via an i.p. administration and adapted afterwards based on preliminary results.\nTrypsin-like, chymotrypsin-like, cathepsin G, elastase-like, and kallikrein activities were determined in colon tissue and fecal samples to profile serine protease activity. […]\nBoc-Gln-Ala-Arg-AMC (75 µM) and n-Tosyl-Gly-Pro-Arg-AMC (100 µM) in 50 mM Tris-HCl pH 8.0 containing 120 mM NaCl were used to measure the trypsin-like activity. […] The fluorescence was measured during 20 min at 37 °C on a Tecan Infinite F200 Pro microtiter plate reader. The other activities were assessed in a similar assay, using the substrates mentioned below. Chymotrypsin-like and kallikrein activity were measured with Suc-Ala-Ala-Pro-Phe-AMC (0.45 mM) and H-Pro-Phe-Arg-AMC (0.45 mM), respectively. Elastase-like activity was measured using two assays, one using Suc-Ala-Ala-Pro-Val-AMC as a substrate and the other using Suc-Ala-Ala-Ala-AMC (both 0.45 mM). […]"}, "[2]": {"test_system": "colonic mucosal inflammation", "assay": "Colonoscopic inflammatory score", "assay_type": "in vivo, Sprague–Dawley rats", "conditions": "for Colonoscopy, Day of VMR: score 0–19, mean ± SEM, n = 8", "procedure": "An in vivo colonoscopy was performed to assess the presence and extent of TNBS-induced colitis, as previously described. Briefly, rats were anesthetized (ketamine/xylazine, 35/5 mg/kg, i.p.) and placed in a supine position. The lubricated tip of a pediatric upper gastrointestinal endoscope (Olympus GIF-N30) was carefully introduced into the colorectum and advanced until the hepatic flexure was reached. Then, the endoscope was slowly withdrawn while assessing the mucosal damage using a validated and standardized scoring system (Supplementary Table S1). In brief, a total inflammatory score (0–19) was calculated based on the extent of ulcerations, as well as on the presence of edema, bleeding, and colonic stenosis."}, "[3]": {"test_system": "inflammatory infiltrate and mucosal architecture of distal colon", "assay": "Microscopic score of the distal colon", "assay_type": "in vivo, Sprague–Dawley rats", "conditions": "for Microscopy, Day of VMR: score 0–10, mean ± SEM, n = 8", "procedure": "For microscopic evaluation, a representative section of the distal colon (1 cm^2) was fixed in 4% formaldehyde for 24 h and embedded in paraffin for hematoxylin and eosin staining. Transverse sections (5 µm) were scored for the presence of inflammatory infiltrate and alterations in mucosal architecture, as previously described (total score 0–10, Supplementary Table S3)."}, "[4]": {"test_system": "MPO activity in colonic tissue", "assay": "Colonic myeloperoxidase (MPO) activity", "assay_type": "in vivo, Sprague–Dawley rats", "conditions": "for MPO Activity, Day of VMR: mean ± SEM, n = 8, significant effect of treatment", "procedure": "Finally, colonic MPO activity was determined in a full-thickness colonic segment (±30 mg) as published previously. MPO is a pro-inflammatory enzyme stored in the azurophilic granules of neutrophilic granulocytes and monocytes. […] One unit (U) of MPO activity is defined as the amount of enzyme required to convert 1 µmol H2O2 to H2O within 1 min at 25 °C and is expressed as U/g tissue."}, "plasmin": {"test_system": "plasmin", "parameters": "method as in PMID 29911328", "conditions": "in vitro; cited from earlier work"}, "thrombin": {"test_system": "thrombin", "parameters": "method as in PMID 29911328", "conditions": "in vitro; cited from earlier work"}, "kallikrein 2": {"test_system": "kallikrein 2", "parameters": "method as in PMID 29911328", "conditions": "in vitro; cited from earlier work"}, "kallikrein 8": {"test_system": "kallikrein 8", "parameters": "method as in PMID 29911328", "conditions": "in vitro; cited from earlier work"}, "dry eye syndrome": {"test_system": "dry eye syndrome", "parameters": "method as in PMID 33057006", "conditions": "rat model of dry eye syndrome; cited from earlier work"}, "[5]": {"conditions": "control rats, 5.0 mg/kg intracolonic"}, "[6]": {"conditions": "post-colitis rats, 0.1 mg/kg intracolonic"}, "[7]": {"conditions": "post-colitis rats, 1.0 mg/kg intracolonic"}, "[8]": {"conditions": "post-colitis rats, 2.5 mg/kg intracolonic"}, "[9]": {"conditions": "post-colitis rats, 5.0 mg/kg intracolonic"}, "[10]": {"conditions": "single intracolonic administration, control and post-colitis rats"}}, "data": [{"smiles": "CC(=O)Nc1ccc(OP(=O)(Oc2ccc(NC(C)=O)cc2)C(Cc2ccc(N=C(N)N)cc2)NC(=O)OCc2ccccc2)cc1.Cl", "note": "(stereo not drawn) [UAMC-00050]", "values": [{"measurement": "Effect on proteolytic activities in colonic tissue", "setting": "[1]", "result": "did not alter"}, {"measurement": "Colonoscopy, Day of VMR", "setting": "[2]; [5]", "result": "0.0 ± 0.0"}, {"measurement": "Colonoscopy, Day of VMR", "setting": "[2]; [6]", "result": "0.0 ± 0.0"}, {"measurement": "Colonoscopy, Day of VMR", "setting": "[2]; [7]", "result": "0.0 ± 0.0"}, {"measurement": "Colonoscopy, Day of VMR", "setting": "[2]; [8]", "result": "0.0 ± 0.0"}, {"measurement": "Colonoscopy, Day of VMR", "setting": "[2]; [9]", "result": "0.0 ± 0.0"}, {"measurement": "Effect on colonoscopic inflammatory scores", "setting": "[2]; [10]", "result": "no effect"}, {"measurement": "Microscopy, Day of VMR", "setting": "[3]; [5]", "result": "0.8 ± 0.4"}, {"measurement": "Microscopy, Day of VMR", "setting": "[3]; [6]", "result": "0.4 ± 0.4"}, {"measurement": "Microscopy, Day of VMR", "setting": "[3]; [7]", "result": "0.8 ± 0.4"}, {"measurement": "Microscopy, Day of VMR", "setting": "[3]; [8]", "result": "0.5 ± 0.4"}, {"measurement": "Microscopy, Day of VMR", "setting": "[3]; [9]", "result": "0.6 ± 0.4"}, {"measurement": "Effect on microscopic evaluation of mucosal damage", "setting": "[3]; [10]", "result": "no effect"}, {"measurement": "MPO Activity, Day of VMR", "setting": "[4]; control rats, 5.0 mg/kg intracolonic, vehicle 0.3 ± 0.1", "result": "0.6 ± 0.2", "unit": "U/g tissue"}, {"measurement": "MPO Activity, Day of VMR", "setting": "[4]; post-colitis rats, 0.1 mg/kg intracolonic, vehicle 0.3 ± 0.2", "result": "2.0 ± 0.7", "unit": "U/g tissue"}, {"measurement": "MPO Activity, Day of VMR", "setting": "[4]; post-colitis rats, 1.0 mg/kg intracolonic, vehicle 0.3 ± 0.2", "result": "2.0 ± 0.5", "unit": "U/g tissue"}, {"measurement": "MPO Activity, Day of VMR", "setting": "[4]; post-colitis rats, 2.5 mg/kg intracolonic, vehicle 0.3 ± 0.2", "result": "2.1 ± 0.5", "unit": "U/g tissue"}, {"measurement": "MPO Activity, Day of VMR", "setting": "[4]; post-colitis rats, 5.0 mg/kg intracolonic, vehicle 0.3 ± 0.2", "result": "1.7 ± 0.5", "unit": "U/g tissue"}, {"measurement": "Effect on colonic MPO activity", "setting": "[4]; single intracolonic administration, both control and post-colitis animals", "result": "increased"}, {"measurement": "inhibition of plasmin", "setting": "plasmin", "result": "efficiently inhibits"}, {"measurement": "inhibition of thrombin", "setting": "thrombin", "result": "efficiently inhibits"}, {"measurement": "inhibition of kallikrein 2", "setting": "kallikrein 2", "result": "efficiently inhibits"}, {"measurement": "inhibition of kallikrein 8", "setting": "kallikrein 8", "result": "efficiently inhibits"}, {"measurement": "Effect on inflammation", "setting": "dry eye syndrome", "result": "anti-inflammatory effects"}]}]}
